Test results published in patent US20220354834A1, “METHODS AND MATERIALS FOR TREATING NEUROTOXICITY” (Cavion, Inc., priority 2019, published 2022).

What was measured:
[1] = system: RPMI-8226 human myeloma xenografts; test: In vivo BTZ and combination (BTZ and CX-8998) anti-tumor (interference) study, tumor volume; design: species or system athymic nude mouse
From the text: Care and husbandry of mice complied with USDA (U.S. Department of Agriculture) Animal Welfare Act and START IACUC (Institutional Animal Care and Use Committee) regulations. The protocol was reviewed and approved by START IACUC. Mice were individually housed in Sealsafe® Plus ventilated cages (Techniplast, West Chester, Pa., USA) and fed with Teklad 2919 (Envigo, Somerset, N.J., USA), irradiated, 19% protein, 9% fat and 4% fiber mouse chow. Mice were maintained under controlled environmental conditions (22+/−2° C. temperature, 55+/−10% relative humidity and 12-hour light/dark cycle (7 a.m.-7 p.m.).
South Texas Accelerated Research Therapeutics (START) (San Antonio, Tex., USA) conducted this study. […] The 30 mg/kg dose was tolerated in preclinical safety studies and anticipated to result in exposures in excess of the therapeutic range for 28 days. Body weight, TV and animal observations were collected twice per week to day 18 (termination) for vehicle control mice and twice per week to day 28 (termination) for each of the other 3 groups. Mean±SD body weight and TV were analyzed with Kruskal-Wallis and Dunn multiple comparison test at day 18 and with Mann Whitney test at day 28 with statistical significance at p<0.05.

[2] = CIPN-reversal study: body weight, tolerability, mortality; assay type: in vivo
Experimental: Rats were housed 2-3 per cage under similar environmental conditions as nude mice in the interference study.
(§1) Wistar female rats (n=52) (Envigo, Correzzano, Italy) at 10-11 weeks of age were utilized. The study was divided into 2 phases of 4 weeks each. […] Body weight was measured periodically during phase 1 from baseline (day 1) to day 28. At baseline and conclusion of phase 1 (day 28), nerve conduction velocity (NCV) was performed on caudal and sciatic nerves and Dynamic Aesthesiometer Test (DAT) measured mechanical threshold (MT) of the hind paw. […] Body weight was measured periodically from baseline (day 28) to day 56 (termination). NCV and MT were measured in all 4 groups at baseline and on day 35 and 56. […] At termination, sciatic nerves were obtained for β-tubulin polymerization and skin samples were procured for intraepidermal nerve fiber (IENF) density and histopathology.

[3] = system: caudal nerves (BTZ-induced CIPN); test: CIPN-reversal study: caudal nerve conduction velocity; assay type: in vivo, Wistar rat
Experimental: as §1
(§2) NCV (meters/second) was obtained from caudal and sciatic nerves with an electromyography tool (Myto 2, ABN Neuro, Firenze, Italy). Caudal NCV was measured by placement of recording needle electrodes distally in the tail with stimulating needle electrodes 5 cm and 10 cm proximal to recording point. Peak latencies of potentials recorded at the 2 sites after nerve stimulation were determined and NCV was calculated. Sciatic NCV was determined by placement of needle recording electrodes near ankle bone and stimulating electrodes close to thigh. Peak latencies were recorded similar to caudal nerve and NCV was calculated. NCV was performed under standard conditions in a temperature-controlled facility (22±2° C.) and rats were under isoflurane anesthesia with monitoring of vital signs.

[4] = system: sciatic nerves (BTZ-induced CIPN); test: CIPN-reversal study: sciatic nerve conduction velocity; assay type: in vivo, Wistar rat
Experimental: as §1, §2

[5] = BTZ vs BTZ+ CX-8998 3 mg/kg, P > 0.05 ns
[6] = BTZ vs BTZ+ CX-8998 10 mg/kg, P > 0.05 ns
[7] = BTZ vs BTZ+ CX-8998 30 mg/kg, P > 0.05 ns
[8] = BTZ+ CX-8998 3 mg/kg vs BTZ+ CX-8998 10 mg/kg, P > 0.05 ns
[9] = BTZ+ CX-8998 10 mg/kg vs BTZ+ CX-8998 30 mg/kg, P > 0.05 ns
[10] = CTRL vs BTZ+ CX-8998 10 mg/kg, P > 0.05 ns
[11] = CTRL vs BTZ+ CX-8998 30 mg/kg, P > 0.05 ns

SMILES: CC(C)c1ccc(CC(=O)N[C@H](C)c2ccc(OCC(F)(F)F)cn2)cc1 [CX-8998, (R)-2-(4-Isopropylphenyl)-N-(1-(5-(2,2,2-Trifluoroethoxy)pyridin-2-yl)ethyl)acetamide]
- TUMOR GROWTH DAY 18, Difference in rank sum (Dunn's Multiple Comparison Test) ([1]; BTZ vs BTZ+ CX-8998, P > 0.05 ns): −3.000
- TUMOR GROWTH DAY 18, Difference in rank sum (Dunn's Multiple Comparison Test) ([1]; Vehicle Control vs BTZ+ cx-8998, P < 0.05 *): 10.13
- tolerability ([2]; BTZ in combination with CX-8998): well tolerated
- mortality (animals) ([2]; one each in combinations of BTZ with 3 mg/kg and 10 mg/kg CX-8998): two
- body weight change ([2]; weeks 5 and 8, BTZ in combination with 3, 10 and 30 mg/kg CX-8998): not significantly different
- NCV OF CAUDAL NERVE (5 weeks), Difference in rank sum (Dunn's Multiple Comparison Test) [3, 5]: −11.21
- NCV OF CAUDAL NERVE (8 weeks), Difference in rank sum (Dunn's Multiple Comparison Test) [3, 5]: −11.55
- NCV OF CAUDAL NERVE (8 weeks), Difference in rank sum (Dunn's Multiple Comparison Test) ([3]; BTZ vs BTZ+ CX-8998 10 mg/kg, P < 0.01 **): −22.36
- NCV OF CAUDAL NERVE (5 weeks), Difference in rank sum (Dunn's Multiple Comparison Test) [3, 6]: −4.625
- NCV OF CAUDAL NERVE (8 weeks), Difference in rank sum (Dunn's Multiple Comparison Test) ([3]; BTZ vs BTZ+ CX-8998 30 mg/kg, P < 0.001 ***): −30.42
- NCV OF CAUDAL NERVE (5 weeks), Difference in rank sum (Dunn's Multiple Comparison Test) [3, 7]: −11.04
- NCV OF CAUDAL NERVE (5 weeks), Difference in rank sum (Dunn's Multiple Comparison Test) [3, 8]: 6.583
- NCV OF CAUDAL NERVE (8 weeks), Difference in rank sum (Dunn's Multiple Comparison Test) [3, 8]: −10.82
- NCV OF CAUDAL NERVE (8 weeks), Difference in rank sum (Dunn's Multiple Comparison Test) ([3]; BTZ+ CX-8998 3 mg/kg vs BTZ+ CX-8998 30 mg/kg, P < 0.05 *): −18.87
- NCV OF CAUDAL NERVE (5 weeks), Difference in rank sum (Dunn's Multiple Comparison Test) ([3]; BTZ+ CX-8998 3 mg/kg vs BTZ+ CX-8998 30 mg/kg, P > 0.05 ns): 0.1667
- NCV OF CAUDAL NERVE (5 weeks), Difference in rank sum (Dunn's Multiple Comparison Test) [3, 9]: −6.417
- NCV OF CAUDAL NERVE (8 weeks), Difference in rank sum (Dunn's Multiple Comparison Test) [3, 9]: −8.053
- NCV OF CAUDAL NERVE (8 weeks), Difference in rank sum (Dunn's Multiple Comparison Test) ([3]; CTRL vs BTZ+ CX-8998 3 mg/kg, P < 0.01 **): 25.45
- NCV OF CAUDAL NERVE (5 weeks), Difference in rank sum (Dunn's Multiple Comparison Test) ([3]; CTRL vs BTZ+ CX-8998 3 mg/kg, P > 0.05 ns): 4.542
- NCV OF CAUDAL NERVE (5 weeks), Difference in rank sum (Dunn's Multiple Comparison Test) [3, 10]: 11.13
- NCV OF CAUDAL NERVE (8 weeks), Difference in rank sum (Dunn's Multiple Comparison Test) [3, 10]: 14.64
- NCV OF CAUDAL NERVE (5 weeks), Difference in rank sum (Dunn's Multiple Comparison Test) [3, 11]: 4.708
- NCV OF CAUDAL NERVE (8 weeks), Difference in rank sum (Dunn's Multiple Comparison Test) [3, 11]: 6.583
- NCV OF SCIATIC NERVE (5 weeks), Difference in rank sum (Dunn's Multiple Comparison Test) [4, 5]: 6.667
- NCV OF SCIATIC NERVE (8 weeks), Difference in rank sum (Dunn's Multiple Comparison Test) [4, 5]: −10.12
- NCV OF SCIATIC NERVE (8 weeks), Difference in rank sum (Dunn's Multiple Comparison Test) ([4]; BTZ vs BTZ+ CX-8998 10 mg/kg, P < 0.05 *): −19.26
- NCV OF SCIATIC NERVE (5 weeks), Difference in rank sum (Dunn's Multiple Comparison Test) [4, 6]: 2.583
- NCV OF SCIATIC NERVE (8 weeks), Difference in rank sum (Dunn's Multiple Comparison Test) ([4]; BTZ vs BTZ+ CX-8998 30 mg/kg, P < 0.05 *): −19.77
- NCV OF SCIATIC NERVE (5 weeks), Difference in rank sum (Dunn's Multiple Comparison Test) [4, 7]: 5.250
